From patent publication US20240307550A1, “MODULATION OF CD46 CELL SURFACE MARKER IN BOTH ANDROGEN RECEPTOR-POSITIVE AND NEGATIVE CANCER CELLS” (The Regents of the University of California, priority 2021, published 2024)

Tests used:
[1] = tested on: CD46 cell surface expression, 22Rv1 cells; test: CD46 cell surface expression by flow cytometry using YS5, 22Rv1 cells; assay type: cell-based
Method: (§1) AR positive 22Rv1 cells were exposed to enzalutamide (5 μM) and CD46 cell surface expression was measured by flow cytometry using YS5. As a reference, prostate specific membrane antigen (PSMA) was also measured at the same time. […] MFI: median fluorescence intensity. See right portion of FIG. 1.
(§2) Methods: 22Rv1 and Du145 cells were exposed to varying concentrations of the Stat3 inhibitor C188-9 and the glucocorticoid receptor inhibitor mifepristone for 7-10 days at 37° C. in culture media, and cell surface CD46 expression is detected by flow cytometry using the anti-CD46 antibody YS5 followed by AlexaFluo-617 labeled anti-human Fc secondary antibody. MFI (median fluorescence intensity) was recorded and analyzed by Student t-test (for two group comparison) and One-way ANOVA (for group number >2).

[2] = tested on: CD46 cell surface expression, Du145 cells; test: CD46 cell surface expression by flow cytometry, Du145 cells; assay type: cell-based; settings: 7 days; for CD46 cell surface expression (MFI): Du145 cells, 37° C.
Method: as §2

[3] = tested on: CD46 cell surface expression, VCaP cells; test: CD46 cell surface expression by flow cytometry using YS5, VCaP cells; assay type: cell-based; settings: AR positive VCaP cells, enzalutamide 5 μM, versus control cells
Method: AR positive VCaP cells were exposed to enzalutamide (5 μM) and CD46 cell surface expression was measured by flow cytometry using the YS5 antibody. MFI: median fluorescence intensity.

[4] = tested on: CD46 antigen density, LNCaP-C4-2B cells; test: CD46 antigen density by quantitative flow cytometry, LNCaP-C4-2B cells; assay type: cell-based; settings: 10 μM, 7 days
Description: CD46 antigen density was *p<0.05; **p<0.01 (p=0.0091), Student's test, duplicates.

[5] = tested on: LNCaP-C4-2B xenografts; assay type: in vivo; settings: mice with subcu LNCaP-C4-2B xenografts; 50 mg/kg daily for 4 weeks from day 10; single iv 3 mg/kg CD46 ADC on Day-14; 69 days
Method: An in vivo tumor implantation mouse model was studied to measure the effect of pre-treatment with enzalutamide followed by andi-CD46 ADC treatment. LNCaP-C4-2B cells were implanted in mice subcu on Day-0. Starting on day 10, the mice were administered with 50 mg/kg, daily, for 4 weeks. […] FIG. 7 depicts the survival rate of the mice.

[6] = tested on: prostate specific membrane antigen (PSMA), 22Rv1 cells; test: PSMA measured as reference by flow cytometry, 22Rv1 cells; assay type: cell-based; settings: AR positive 22Rv1 cells, enzalutamide 5 μM
Method: as §1

[7] = tested on: CD46 cell surface antigen density, H660 cells; test: CD46 cell surface antigen density by quantitative flow cytometry, H660 cells; assay type: cell-based; settings: AR-negative neuroendocrine H660 cells, 10 μM abiraterone
Method: The neuroendocrine prostate cancer cell line H660, which is AR-negative, was exposed to an ASI (in this case, 10 μM abiraterone), and CD46 cell surface antigen density was measured by quantitative flow cytometry. Over 2-fold increase of CD46 antigen density was found following ASI treatment.

[8] = molecular target: T1, CD46 on the surface of prostate cancer cells (human, UniProt P15529 35-392); test: cell-based or functional assay
T1 sequence (looked up): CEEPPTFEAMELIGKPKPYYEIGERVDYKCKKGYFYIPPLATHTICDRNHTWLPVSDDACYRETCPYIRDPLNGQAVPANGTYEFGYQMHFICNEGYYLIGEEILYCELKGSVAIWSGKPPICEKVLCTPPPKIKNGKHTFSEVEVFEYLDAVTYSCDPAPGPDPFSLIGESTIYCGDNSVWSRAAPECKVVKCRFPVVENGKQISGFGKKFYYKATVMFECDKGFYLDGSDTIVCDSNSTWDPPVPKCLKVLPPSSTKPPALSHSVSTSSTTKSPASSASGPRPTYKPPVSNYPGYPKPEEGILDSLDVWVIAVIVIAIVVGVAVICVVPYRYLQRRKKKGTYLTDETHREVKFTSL

[9] = molecular target: T1, CD46 on the surface of prostate cancer …; test: flow cytometry on VCaP and 22Rv1 cells (figure legend)
Method: AR positive VCaP cells were exposed to enzalutamide (5 μM) and CD46 cell surface expression was measured by flow cytometry using the YS5 antibody. MFI: median fluorescence intensity. […] AR positive 22Rv1 cells were exposed to enzalutamide (5 μM) and CD46 cell surface expression was measured by flow cytometry using YS5. As a reference, prostate specific membrane antigen (PSMA) was also measured at the same time. Enzalutamide-induced upregulation was unique to CD46 but not PSMA. MFI: median fluorescence intensity. See right portion of FIG. 1.
AR positive 22Rv1 cells were exposed to enzalutamide (5 μM) and CD46 cell surface expression was measured by flow cytometry using YS5. As a reference, prostate specific membrane antigen (PSMA) was also measured at the same time. Enzalutamide-induced upregulation was unique to CD46 but not PSMA. MFI: median fluorescence intensity. See right portion of FIG. 1.

Question: Which results are given for `COc1ccc(S(=O)(=O)Nc2cc(-c3c(O)ccc4ccccc34)c(O)c3ccccc23)cc1` [C188-9, N-(1′, 2-Dihydroxy-1,2′-binaphthalen-4′-yl)-4-methoxybenzenesulfonamide]?
Answer: CD46 cell surface expression (MFI) ([1]; 22Rv1 cells, C188-9 low/mid concentrations (2.5 and 5 μM), 37° C., 10 days): stimulates CD46 cell surface presentation; CD46 cell surface presentation (MFI) ([1]; prostate cancer cells (22Rv1, 10 μM, 10 days, single experiment, FIG. 12; Du145, FIG. 13), C188-9 high concentrations (>10 μM)): inhibits; CD46 cell surface expression (MFI) ([2]; C188-9 10, 20 and 50 μM): inhibits CD46 cell surface presentation

Question: For `CNC(=O)c1ccc(N2C(=S)N(c3ccc(C#N)c(C(F)(F)F)c3)C(=O)C2(C)C)cc1F` [enzalutamide], which “CD46 cell surface expression (MFI)” value ([1]; AR positive 22Rv1 cells, enzalutamide 5 μM) is on record?
Answer: Its value is “upregulation was unique to CD46”.

Question: And the “CD46 cell surface expression (MFI)” value [3]?
Answer: The value was “significantly more CD46 expression than control cells”.

Question: And the “CD46 cell surface expression” value ([2]; AR-null Du145 cells, enzalutamide 5 μM, p<0.0001, n=4)?
Answer: The value was “increase significantly”.

Question: What about the CD46 antigen density [4] of the same molecule?
Answer: Its CD46 antigen density is “increased”.

Question: What about the “tumor response / overall survival (Kaplan-Meier)” value [5] of the same molecule?
Answer: Its value is “resistant to enz treatment alone”.

Question: What about the “PSMA expression (MFI)” value [6] of the same molecule?
Answer: The value was “not PSMA”.

Question: `C[C@]12CC[C@H](O)CC1=CC[C@@H]1[C@@H]2CC[C@]2(C)C(c3cccnc3)=CC[C@@H]12` [abiraterone] was tested. Which “increase of CD46 antigen density” value [7] did it give?
Answer: The value was “Over 2 fold”.

Question: Which results are given for `CC#C[C@]1(O)CC[C@H]2[C@@H]3CCC4=CC(=O)CCC4=C3[C@@H](c3ccc(N(C)C)cc3)C[C@@]21C` [mifepristone]?
Answer: CD46 cell surface expression (MFI) ([1]; 22Rv1 cells, mifepristone 2.5 μM, 37° C., 10 days, Student t test): not significant; CD46 cell surface expression (MFI) ([2]; mifepristone high concentrations (20 and 50 PM)): inhibits CD46 cell surface presentation

B1: CD46 ADC (YS5-MC-vc-PAB-MMAF) (antibody, human IgG1, lambda, V domains shown)
VH: QVQLVQSGGGVVQPGRSLRLACAASGLTVNNYAMHWVRQAPGKGLEWVAVISYDGNNKYYADSVKGRFTISRDNSKNTLYLQMNSLRAEDTAVYYCAKGGGYFDLWGRGTLVTVSS
VL: QSVLTQPPSVSGAPGQRVTISCTGSSSNIGAGYDVHWYQQLPGTAPKLLIYGNNNRPSGVPDRFSGSKSGTSASLAITGLQAEDEADYYCSSYTSGTWLFGGGTKLTVLG
modifications: MC-vc-PAB-MMAF drug-linker conjugated; sites and drug to antibody ratio not stated for this conjugate
Question: Which “EC50 of cell killing, LNCaP-C4-2B cells pre-exposed to abiraterone against cells not pre-exposed” value [8] does the source give for B1 here?
Answer: Its value is 17 fold.

B2: YS5 anti-CD46 antibody (antibody, human IgG1, lambda, V domains shown)
VH: B1 VH
VL: B1 VL
notes: also called YS5FL; anti-CD46 antibody YS5
Question: Does B2 bind [9]?
Answer: Result: binds
